Measurements reported in US8513251B2, “Pyridazinone compounds” (Takeda Pharmaceutical Company Limited, priority 2009, dated 2013).

Row | Compound | melting point
1 | O=c1ccn(-c2cccc(C(F)(F)F)c2)nc1-c1ccnn1-c1ccc(F)cc1 [Example 2, 3-[1-(4-Fluorophenyl)-1H-pyrazol-5-yl]-1-[3-(trifluoromethyl)phenyl]pyridazin-4(1H)-one] | 130 to 131 °C
2 | O=c1c(Br)cn(-c2cccc(C(F)(F)F)c2)nc1-c1ccnn1-c1ccccc1 [Example 67, 5-Bromo-3-(1-phenyl-1H-pyrazol-5-yl)-1-[3-(trifluoromethyl)phenyl]pyridazin-4(1H)-one] | 145 to 146 °C
3 | Cc1ccc(-n2nccc2-c2nn(-c3cccc(C(F)(F)F)c3)ccc2=O)cc1 [Example 1, 3-[1-(4-Methylphenyl)-1H-pyrazol-5-yl]-1-[3-(trifluoromethyl)phenyl]pyridazin-4(1H)-one] | 164 to 165 °C
4 | O=c1ccn(-c2cccc(C(F)(F)F)c2)nc1-c1ccnn1-c1cccc(F)c1 [Example 6, 3-[1-(3-Fluorophenyl)-1H-pyrazol-5-yl]-1-[3-(trifluoromethyl)phenyl]pyridazin-4(1H)-one] | 104 to 105 °C
5 | COc1cccc(-n2ccc(=O)c(-c3ccnn3-c3ccccc3)n2)c1 [Example 21, 1-(3-Methoxyphenyl)-3-(1-phenyl-1H-pyrazol-5-yl)pyridazin-4(1H)-one] | 110 to 111 °C
6 | O=c1c(OCC2CC2)cn(-c2cccc(C(F)(F)F)c2)nc1-c1ccnn1-c1ccccc1 [Example 61, 5-(Cyclopropylmethoxy)-3-(1-phenyl-1H-pyrazol-5-yl)-1-[3-(trifluoromethyl)phenyl]pyridazin-4(1H)-one] | 72 to 78 °C
7 | Cc1cnn(-c2ccccc2)c1-c1nn(-c2cccc(C(F)(F)F)c2)ccc1=O [Example 71, 3-(4-Methyl-1-phenyl-1H-pyrazol-5-yl)-1-[3-(trifluoromethyl)phenyl]pyridazin-4(1H)-one] | 208 to 211 °C
8 | O=c1ccn(-c2cccc(C(F)(F)F)c2)nc1-c1cn(C(c2ccccc2)(c2ccccc2)c2ccccc2)nc1-c1ccccc1 [Example 73, 3-(3-Phenyl-1-trityl-1H-pyrazol-4-yl)-1-[3-(trifluoromethyl)phenyl]pyridazin-4(1H)-one] | 216 to 218 °C

The remaining lines, values ahead:

Row | melting point | Compound
9 | 159 to 163 °C | O=c1ccn(-c2cccc(C(F)(F)F)c2)nc1-c1ccoc1-c1ccccc1 [Example 85, 3-(2-Phenylfuran-3-yl)-1-[3-(trifluoromethyl)phenyl]pyridazin-4(1H)-one]
10 | 200 to 202 °C | COc1cn(-c2ccc(-c3c(C)noc3C)cc2F)nc(-c2ccnn2-c2ccccc2)c1=O [Example 112, 1-[4-(3,5-Dimethylisoxazol-4-yl)-2-fluorophenyl]-5-methoxy-3-(1-phenyl-1H-pyrazol-5-yl)pyridazin-4(1H)-one]
11 | 167 to 170 °C | COc1cn(-c2cccc(C(F)(F)F)c2)nc(-n2ccnc2-c2ccccc2)c1=O [Example 82, 5-Methoxy-3-(2-phenyl-1H-imidazol-1-yl)-1-[3-(trifluoromethyl)phenyl]pyridazin-4(1H)-one]
12 | 223 to 224 °C | COc1cn(-c2ccc(O)cc2F)nc(-c2ccnn2-c2ccccc2)c1=O [Example 91, 1-(2-Fluoro-4-hydroxyphenyl)-5-methoxy-3-(1-phenyl-1H-pyrazol-5-yl)pyridazin-4(1H)-one]
13 | 200 to 202 °C | COc1cn(-c2cc3c(cc2F)OC(F)(F)O3)nc(-c2ccnn2-c2ccccc2)c1=O [Example 95, 5-Methoxy-3-(1-phenyl-1H-pyrazol-5-yl)-1-(2,2,6-trifluoro-1,3-benzodioxol-5-yl)pyridazin-4(1H)-one]
14 | 206 to 208 °C | O=c1ccn(-c2cccc(C(F)(F)F)c2)nc1-c1c[nH]nc1-c1ccccc1 [Example 74, 3-(3-Phenyl-1H-pyrazol-4-yl)-1-[3-(trifluoromethyl)phenyl]pyridazin-4(1H)-one]
15 | 139 to 141 °C | COc1cc(=O)c(-c2ccnn2-c2ccccc2)nn1-c1cccc(C(F)(F)F)c1 [Example 193, 6-Methoxy-3-(1-phenyl-1H-pyrazol-5-yl)-1-[3-(trifluoromethyl)phenyl]pyridazin-4(1H)-one]
